Measured values: patent publication US20230414605A1, “Method of Treating Cancer Using FABP5 Inhibitors” (Aurigene Oncology Limited, priority 2020, published 2023)

Experiments:
Format in all cases: cell-based
CCRF-CEM = assay: Anti proliferative activity in haematological cancer cell lines (CellTiter Glo), CCRF-CEM
Procedure: (§1) After 24 hours, selected compound of the present invention was added to cells from 10 mM stocks made in DMSO (Sigma Cat no. D2650). CTG reading was taken on the day of compound addition which was labelled as Day 0 reading. Each concentration of compound was tested in triplicate with DMSO concentration not exceeding a final percentage of 0.1 in the cells. After 3 days (72 hours) of incubation assay terminated using 100 μl of CellTiter Glo® reagent (Promega, Cat. no G7572). CellTiter Glo® Luminescent reagent determines the number of viable cells based on quantitation of ATP present which is an indicator of cell number and metabolically activity. Luminescence readings were taken in Victor-3 instrument. The data was analysed using graph pad prism software. Positive control (100% survival)=Cells in complete media with […]; Negative control/blank (0% survival)=Media alone containing 0.1% DMSO.

OCI-LY3 cells = assay: Anti proliferative activity in haematological cancer cell lines (CellTiter Glo), OCI-LY3
Procedure: as §1

H929 = assay: Anti proliferative activity in haematological cancer cell lines (CellTiter Glo), H929
Procedure: as §1

DOHH-2 = assay: Anti proliferative activity in haematological cancer cell lines (CellTiter Glo), DOHH-2; conditions: Homo sapiens, DOHH-2, Follicular lymphoma, 72 hours incubation
Procedure: as §1

CUTLL-1 = assay: Anti proliferative activity in haematological cancer cell lines (CellTiter Glo), CUTLL-1
Procedure: as §1

HBL-1 = assay: Anti proliferative activity in haematological cancer cell lines (CellTiter Glo), HBL-1; conditions: HBL1, HBL-1, ABC-DLBCL, 72 hours incubation
Procedure: as §1

Pfeiffer = assay: Anti proliferative activity in haematological cancer cell lines (CellTiter Glo), Pfeiffer; conditions: Homo sapiens, GCB-DLBCL, 72 hours incubation
Procedure: as §1

OCI-LY10 = assay: Anti proliferative activity in haematological cancer cell lines (CellTiter Glo), OCI-LY10; conditions: Homo sapiens, OCI-LY10, ABC-DLBCL, 72 hours incubation
Procedure: as §1

TMD8* (wt btk) = assay: Anti proliferative activity in haematological cancer cell lines (CellTiter Glo), TMD8; conditions: Homo sapiens, ABC-DLBCL, 72 hours incubation
Procedure: as §1

- IC50 (CCRF-CEM; Homo sapiens, CCRF-CEM, T-cell acute lymphoblastic leukemia, 72 hours incubation, CellTiter Glo): 280 nM
- IC50 (OCI-LY3 cells; Homo sapiens, OCI-LY3, ABC-DLBCL, 72 hours incubation, CellTiter Glo): 20 nM
- IC50 (H929; Homo sapiens, NCI-H929, H929, Multiple myeloma, 72 hours incubation, CellTiter Glo): 50 nM
- IC50 (DOHH-2): 20 nM
- IC50 (CUTLL-1; CUTLL1, CUTLL-1, T-cell acute lymphoblastic leukemia, 72 hours incubation, CellTiter Glo): 50 nM
- IC50 (HBL-1): 350 nM
- IC50 (Pfeiffer): 870 nM
- IC50 (OCI-LY10): 10 nM
- IC50 (TMD8* (wt btk)): 10 nM
Compound: C=CC(=O)N1CCN(C(=O)NC2(C#Cc3ccc(Cl)c(Cl)c3)CC2)CC1 [Cpd 23]
- anti-proliferative activity (in words) (CCRF-CEM; CCRF-CEM (T-cell acute lymphoblastic leukemia)): potent anti-proliferative activity
- anti-proliferative activity (in words) (OCI-LY3 cells; OCI-LY3 (ABC-DLBCL), activating mutation in CARD11): potent anti-proliferative activity
- anti-proliferative activity (in words) (H929; H929 (multiple myeloma)): potent anti-proliferative activity
- anti-proliferative activity (in words) (CUTLL-1; CUTLL-1 (T-cell acute lymphoblastic leukemia)): potent anti-proliferative activity
